The values that follow come from patent US8008074B2, “Compositions and methods for improving bone mass through modulation of receptors of PTH and fragments thereof” (The UAB Research Foundation, priority 2006, dated 2011).

One test deals with LRP5/6. As to the kind of experiment: Immunostaining of phosphorylated PPPSP motif of LRP5/6 in rat trabecular bone. It is filed as in vivo. The note with it: rats, single PTH injection. How it is done:
To further examine whether LRP5/6 mediates PTH-elevated β-catenin levels in vivo, trabecular bone sections were immunostained with the antibody against phosphorylated PPPSP motif. Formalin-fixed tissue sections of 5 μm thickness were deparaffinized in xylene and rehydrated in graded alcohols. Antigen retrieval was achieved by incubating tissue sections in boiling 10 mmol/L citrate buffer (pH 6.0) for 5 minutes in a microwave oven. All sections were then incubated with hydrogen peroxide for 5 minutes. Subsequently, sections were incubated with the primary antibodies against β-catenin or LRP6 1490 for 1 hour at room temperature. After rinsing the primary antibody in T-PBS, antibody detection was accomplished using the Super Sensitive biotin-streptavidin horseradish peroxidase detection kit (Biogenex, San Ramon, Calif.). The diaminobenzidine tetrachloride Super Sensitive substrate kit (Biogenex, San Ramon, Calif.) was used to visualize the antibody-antigen complex. The sections were then counterstained with hematoxylin. Appropriate negative controls, consisting of tissue sections of each case processed without the addition of primary antibody, were prepared along with positive multitissue control sections. Only those cases with greater than 10% immunohistochemical stains were considered as positive. Assessment of the immunohistochemical staining was performed independently by two pathologists. Contrasting results were discussed until an agreement was reached.
The pattern of phosphorylated LRP5/6 was correlated with the changes of β-catenin levels induced by PTH in Rat osteoblasts.

For a further test, the system named is MPK1, RANKL and OPG mRNA. Description: Real-Time PCR of PTH target genes in bone tissue of injected rats. The format is in vivo, rat. The note with it: rats injected with PTH (PTH (1-34)). The text has this: Immunohistochemical staining of representative sections with antibody against β-catenin at 10× objective and 40× objective counterstained with hematoxylin from either primary spongliosa subjacent to the epiphyseal growth plates or Spongiosa subjacent to diaphyseal hematopoietic bone marrow of different time points after PTH single injection in rats. […] Each value is the mean±SEM of determinations in three independent slides of each animal and three animals of each group. Panels B and C show graphs of the expression of MPK1 mRNA and the ratio of RANKL/OPG as quantified by real-time PCR in cavaria tissue from the same animals. […] Panel D is a graph showing the numbers of β-catenin-positive osteoblasts as a percent of total osteoblasts per field that were determined. […]
It has been reported that intermittent PTH treatment targeted proliferating cells in the primary spongiosa of young rat distal femur metaphysis, resulting in an increased number of osteoblasts (Oniya, 1995, Bone). […] Quantitation of MPK1, RANKL, OPG, and GAPDH with specific primers was performed using a DNA Engine Opticon continuous fluorescence detection system (MJ Research, Logan, Utah) with SYBR Green I as the method of detection. […] Briefly, quantitative PCR was performed in a total reaction volume of 20 μl per […]. […]
In general terms: In qPCR the cycle at which signal appears reflects the starting amount.

The target in the next test is T1, LRP5 (Homo sapiens, UniProt O75197).
T1 construct: expressed in transfected cells; host or cells: HEK293
As to the kind of experiment: LRP5 PPPSP phosphorylation in HEK293 cells (Ab1490 Western blot). The format is cell-based. The following applies: HEK293 cells transfected with HA-tagged LRP5; at 45 minutes; 5×10^−7 M PTH (1-84). How it is done:
HEK293 cells transfected with HA-tagged LRP5 were treated with conditioned medium containing Wnt-3a (lane 1), control medium with 5×10^−7 M PTH (1-84) for the indicated time periods (lane 3-5), or without PTH treatment (lane 2). Phosphorylated LRP5 was detected by Western blotting of the anti-HA immunoprecipitates with Ab1490, which specifically recognizes phosphorylated PPPSP sites within LRP5/6. […] VSVG-tagged LRP6 was cotransfected into HEK 293 cells with HA-Axin and GSK3β, and the cells were treated with or without 10^−7 M PTH (1-84) for the indicated time periods. The LRP6-associated Axin was determined by Western blotting of the anti-VSVG immunoprecipitates with anti-HA antibody. […] The LRP6-associated Axin was determined by Western blotting of the anti-VSVG immunoprecipitates with anti-HA antibody. […] The association of axin with wild type and mutant proteins was determined by Western blotting of the anti-VSVG immunoprecipitates with anti-HA antibody. […] Then luciferase activities were determined.
UMR-106 cells were treated with either PTH or Wnt-3a. The cell lysates were immunoprecipitated for endogenous LRP6, and the precipitated immunocomplexes were detected by Western blotting with an antibody that specifically recognizes the phosphorylated PPPSP motifs (aa, 1490) (Tamai et al., 2004). […]

T1 sequence (O75197 32-1615, species assumed): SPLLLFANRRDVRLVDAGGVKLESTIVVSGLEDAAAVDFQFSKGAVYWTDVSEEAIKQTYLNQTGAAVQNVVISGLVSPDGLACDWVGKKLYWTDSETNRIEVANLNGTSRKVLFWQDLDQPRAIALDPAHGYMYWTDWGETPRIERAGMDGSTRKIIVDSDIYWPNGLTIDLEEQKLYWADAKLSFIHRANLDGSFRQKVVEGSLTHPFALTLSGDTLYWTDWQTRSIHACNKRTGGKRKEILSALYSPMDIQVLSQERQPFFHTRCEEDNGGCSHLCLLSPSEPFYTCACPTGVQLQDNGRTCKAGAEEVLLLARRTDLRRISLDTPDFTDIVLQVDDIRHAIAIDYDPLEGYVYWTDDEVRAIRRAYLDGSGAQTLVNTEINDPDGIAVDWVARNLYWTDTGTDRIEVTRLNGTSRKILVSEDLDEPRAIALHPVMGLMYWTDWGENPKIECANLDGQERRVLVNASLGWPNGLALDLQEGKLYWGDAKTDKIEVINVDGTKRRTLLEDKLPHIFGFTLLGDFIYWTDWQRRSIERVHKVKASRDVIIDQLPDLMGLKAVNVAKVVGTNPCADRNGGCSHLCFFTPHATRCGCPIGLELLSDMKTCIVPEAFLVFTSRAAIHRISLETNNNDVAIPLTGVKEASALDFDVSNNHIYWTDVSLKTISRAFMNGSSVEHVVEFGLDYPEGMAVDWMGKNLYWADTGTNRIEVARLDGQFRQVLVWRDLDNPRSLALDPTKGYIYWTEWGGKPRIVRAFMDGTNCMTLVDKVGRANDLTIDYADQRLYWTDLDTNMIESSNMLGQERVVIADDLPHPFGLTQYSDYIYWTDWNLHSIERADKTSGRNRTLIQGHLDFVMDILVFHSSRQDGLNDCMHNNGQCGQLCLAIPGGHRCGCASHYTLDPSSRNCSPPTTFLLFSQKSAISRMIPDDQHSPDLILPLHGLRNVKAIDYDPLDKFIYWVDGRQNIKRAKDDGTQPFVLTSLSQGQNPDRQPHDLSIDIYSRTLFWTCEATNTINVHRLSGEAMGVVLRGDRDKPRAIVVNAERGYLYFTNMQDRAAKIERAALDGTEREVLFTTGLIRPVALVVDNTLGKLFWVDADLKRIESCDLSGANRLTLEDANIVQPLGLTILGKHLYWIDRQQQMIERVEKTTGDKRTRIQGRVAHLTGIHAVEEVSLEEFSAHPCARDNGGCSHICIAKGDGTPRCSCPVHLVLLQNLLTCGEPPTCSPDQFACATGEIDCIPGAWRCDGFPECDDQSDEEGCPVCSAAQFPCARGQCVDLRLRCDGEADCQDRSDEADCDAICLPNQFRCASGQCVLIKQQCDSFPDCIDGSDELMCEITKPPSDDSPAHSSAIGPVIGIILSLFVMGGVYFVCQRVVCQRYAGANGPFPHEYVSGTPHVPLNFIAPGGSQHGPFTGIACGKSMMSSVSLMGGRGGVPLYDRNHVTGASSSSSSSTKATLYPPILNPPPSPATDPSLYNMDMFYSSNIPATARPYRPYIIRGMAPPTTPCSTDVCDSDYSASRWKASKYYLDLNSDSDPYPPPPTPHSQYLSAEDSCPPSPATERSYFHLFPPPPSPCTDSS

Consider “PTH: Parathyroid hormone ligand, form not stated at the place; figure legends give PTH (1-84) or PTH (1-34)”, for which, in the test with LRP5/6, the “peak of LRP5/6 phosphorylation after PTH injection” value was found to be 8 h and the “start of LRP5/6 phosphorylation after PTH injection” value was determined as 2 h. In addition, the “LRP5/6 phosphorylation at 24 hours” value in the test on LRP5/6 (24 hours) is reported as “disappearing”. Also, in the test with LRP5/6 (data not shown), the “phosphorylation of LRP5/6 in preosteoblasts/osteoblasts at the surface of trabecular bone” value is “enhanced phosphorylation of LRP5/6” and the “total LRP5/6 protein level in osteoblasts of rat tibia bone” value is given as “remained unchanged”. Moreover, in the test on MPK1, RANKL and OPG mRNA, the “MPK1 mRNA expression” value is “stimulated MPK1 mRNA expression” and the “ratio of RANKL/OPG” value is reported as “increased”. The “LRP5 phosphorylation (PPPSP)” value with LRP5 was “dramatically stimulated LRP5 phosphorylation”.
